From article PMC11233931, “Remodeling tumor‐associated macrophage for anti‐cancer effects by rational design of irreversible inhibition of mitogen‐activated protein kinase‐activated protein kinase 2” (MedComm, 2024)

Legend:
Assay in all cases: Eurofins kinase selectivity profile against 380 other human recombinant kinases (Table S2)
Format in all cases: biochemical
[1] = molecular target: T1, 380 human recombinant protein kinases (Homo sapiens, UniProt Q7KZI7); details: PAR-1Bα(h), read-out: Inhibition rate
T1 construct: purchased Eurofins (Celle Lévescault)
Summary of the method: (§1)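 Outsourced panel: 380 human recombinant kinases; inhibitor tested at various concentrations; purpose: MK2 selectivity check.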

[2] = molecular target: T2, 380 human recombinant protein kinases (Homo sapiens, UniProt O00238); details: ALK6(h), read-out: Inhibition rate
T2 construct: purchased Eurofins (Celle Lévescault)
T2 sequence (O00238 14-502): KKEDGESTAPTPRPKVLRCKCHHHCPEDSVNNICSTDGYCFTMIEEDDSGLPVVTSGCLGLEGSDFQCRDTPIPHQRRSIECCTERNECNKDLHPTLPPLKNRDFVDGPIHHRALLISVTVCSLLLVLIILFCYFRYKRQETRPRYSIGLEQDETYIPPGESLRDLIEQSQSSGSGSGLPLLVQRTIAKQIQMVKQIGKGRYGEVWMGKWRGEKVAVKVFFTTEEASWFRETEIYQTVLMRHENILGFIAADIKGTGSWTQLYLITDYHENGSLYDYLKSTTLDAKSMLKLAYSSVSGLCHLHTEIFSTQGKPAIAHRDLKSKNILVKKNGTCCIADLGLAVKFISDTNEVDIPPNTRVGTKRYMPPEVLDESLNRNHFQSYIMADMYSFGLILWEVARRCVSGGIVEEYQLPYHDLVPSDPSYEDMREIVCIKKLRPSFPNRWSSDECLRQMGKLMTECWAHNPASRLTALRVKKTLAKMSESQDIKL
Summary of the method: as §1

[3] = molecular target: T3, 380 human recombinant protein kinases (Homo sapiens, UniProt P19525); details: PKR(h), read-out: Inhibition rate
T3 construct: purchased Eurofins (Celle Lévescault)
T3 sequence (P19525 whole entry): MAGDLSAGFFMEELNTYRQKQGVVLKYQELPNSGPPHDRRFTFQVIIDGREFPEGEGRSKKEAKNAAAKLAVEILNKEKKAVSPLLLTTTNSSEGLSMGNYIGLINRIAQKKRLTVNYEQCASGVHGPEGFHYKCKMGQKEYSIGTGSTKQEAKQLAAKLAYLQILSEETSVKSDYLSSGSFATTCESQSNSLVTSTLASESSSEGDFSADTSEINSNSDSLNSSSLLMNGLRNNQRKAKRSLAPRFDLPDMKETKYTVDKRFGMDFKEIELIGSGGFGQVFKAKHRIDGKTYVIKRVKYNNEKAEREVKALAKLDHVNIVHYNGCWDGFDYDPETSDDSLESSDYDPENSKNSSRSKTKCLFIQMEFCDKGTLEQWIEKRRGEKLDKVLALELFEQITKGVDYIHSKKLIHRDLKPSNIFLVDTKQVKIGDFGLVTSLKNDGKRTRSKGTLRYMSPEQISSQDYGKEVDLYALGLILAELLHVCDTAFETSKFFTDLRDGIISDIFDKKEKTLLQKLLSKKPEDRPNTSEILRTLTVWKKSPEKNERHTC
Summary of the method: as §1

[4] = molecular target: T4, 380 human recombinant protein kinases (Homo sapiens, UniProt Q16816); details: PhKγ1(h), read-out: Inhibition rate
T4 construct: purchased Eurofins (Celle Lévescault)
T4 sequence (Q16816 whole entry): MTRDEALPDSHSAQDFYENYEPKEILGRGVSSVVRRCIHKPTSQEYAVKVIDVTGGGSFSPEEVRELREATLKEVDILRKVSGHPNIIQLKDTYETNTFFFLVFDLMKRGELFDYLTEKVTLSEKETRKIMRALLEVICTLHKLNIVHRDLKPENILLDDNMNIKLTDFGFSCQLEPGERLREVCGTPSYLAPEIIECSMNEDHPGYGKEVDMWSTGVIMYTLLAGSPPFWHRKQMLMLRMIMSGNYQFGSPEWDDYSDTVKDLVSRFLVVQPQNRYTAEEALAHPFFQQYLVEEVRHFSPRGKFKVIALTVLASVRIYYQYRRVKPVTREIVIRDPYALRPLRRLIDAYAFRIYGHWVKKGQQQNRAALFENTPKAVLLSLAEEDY
Summary of the method: as §1

[5] = molecular target: T5, 380 human recombinant protein kinases (Homo sapiens, UniProt Q00536); details: CDK16/cyclinY(h), read-out: Inhibition rate
T5 construct: purchased Eurofins (Celle Lévescault)
Summary of the method: as §1

[6] = molecular target: T6, 380 human recombinant protein kinases (Homo sapiens, UniProt P78362); details: SRPK2(h), read-out: Inhibition rate (%)
T6 construct: purchased Eurofins (Celle Lévescault)
Summary of the method: as §1

[7] = molecular target: T7, 380 human recombinant protein kinases (Homo sapiens, UniProt Q9C098); details: DCAMKL3(h), read-out: Inhibition rate
T7 construct: purchased Eurofins (Celle Lévescault)
T7 sequence (Q9C098 whole entry): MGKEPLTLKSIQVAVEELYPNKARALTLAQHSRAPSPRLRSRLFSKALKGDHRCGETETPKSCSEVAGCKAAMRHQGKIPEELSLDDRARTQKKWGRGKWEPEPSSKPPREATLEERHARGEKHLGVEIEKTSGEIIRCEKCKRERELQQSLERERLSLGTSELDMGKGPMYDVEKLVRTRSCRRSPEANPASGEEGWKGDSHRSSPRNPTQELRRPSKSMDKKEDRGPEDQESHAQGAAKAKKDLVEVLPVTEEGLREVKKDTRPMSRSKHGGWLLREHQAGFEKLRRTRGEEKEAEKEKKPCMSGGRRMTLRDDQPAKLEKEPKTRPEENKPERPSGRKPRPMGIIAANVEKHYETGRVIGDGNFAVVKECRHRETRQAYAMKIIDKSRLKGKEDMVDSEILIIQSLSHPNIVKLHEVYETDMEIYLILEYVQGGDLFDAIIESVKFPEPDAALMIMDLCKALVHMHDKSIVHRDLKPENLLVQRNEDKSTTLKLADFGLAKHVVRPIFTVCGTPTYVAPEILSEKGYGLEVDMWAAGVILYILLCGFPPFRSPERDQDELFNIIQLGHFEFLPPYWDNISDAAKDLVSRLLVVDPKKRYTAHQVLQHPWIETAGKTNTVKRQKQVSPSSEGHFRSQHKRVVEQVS
Summary of the method: as §1

[8] = molecular target: T8, 380 human recombinant protein kinases (Homo sapiens, UniProt Q15375); details: EphA7(h), read-out: Inhibition rate
T8 construct: purchased Eurofins (Celle Lévescault)
Summary of the method: as §1

[9] = molecular target: T9, 380 human recombinant protein kinases (Homo sapiens, UniProt Q07002); details: CDK18/cyclinY(h), read-out: Inhibition rate
T9 construct: purchased Eurofins (Celle Lévescault)
T9 sequence (Q07002 whole entry): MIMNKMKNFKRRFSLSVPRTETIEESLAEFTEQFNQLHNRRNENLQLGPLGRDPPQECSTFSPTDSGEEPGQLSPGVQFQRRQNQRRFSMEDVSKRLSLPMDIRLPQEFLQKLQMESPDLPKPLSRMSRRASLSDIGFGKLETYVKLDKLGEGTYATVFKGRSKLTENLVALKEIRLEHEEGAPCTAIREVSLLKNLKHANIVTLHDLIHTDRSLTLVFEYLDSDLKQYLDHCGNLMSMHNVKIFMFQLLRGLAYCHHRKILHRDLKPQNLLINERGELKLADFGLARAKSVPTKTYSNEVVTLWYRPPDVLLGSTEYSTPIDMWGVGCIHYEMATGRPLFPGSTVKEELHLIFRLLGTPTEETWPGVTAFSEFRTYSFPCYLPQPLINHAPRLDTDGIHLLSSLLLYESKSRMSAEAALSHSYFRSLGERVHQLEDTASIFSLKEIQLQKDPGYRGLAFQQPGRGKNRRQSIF
Summary of the method: as §1

[10] = molecular target: T10, 380 human recombinant protein kinases (Homo sapiens, UniProt P06213); details: IR(h), read-out: Inhibition rate
T10 construct: purchased Eurofins (Celle Lévescault)
T10 sequence (P06213 28-1382): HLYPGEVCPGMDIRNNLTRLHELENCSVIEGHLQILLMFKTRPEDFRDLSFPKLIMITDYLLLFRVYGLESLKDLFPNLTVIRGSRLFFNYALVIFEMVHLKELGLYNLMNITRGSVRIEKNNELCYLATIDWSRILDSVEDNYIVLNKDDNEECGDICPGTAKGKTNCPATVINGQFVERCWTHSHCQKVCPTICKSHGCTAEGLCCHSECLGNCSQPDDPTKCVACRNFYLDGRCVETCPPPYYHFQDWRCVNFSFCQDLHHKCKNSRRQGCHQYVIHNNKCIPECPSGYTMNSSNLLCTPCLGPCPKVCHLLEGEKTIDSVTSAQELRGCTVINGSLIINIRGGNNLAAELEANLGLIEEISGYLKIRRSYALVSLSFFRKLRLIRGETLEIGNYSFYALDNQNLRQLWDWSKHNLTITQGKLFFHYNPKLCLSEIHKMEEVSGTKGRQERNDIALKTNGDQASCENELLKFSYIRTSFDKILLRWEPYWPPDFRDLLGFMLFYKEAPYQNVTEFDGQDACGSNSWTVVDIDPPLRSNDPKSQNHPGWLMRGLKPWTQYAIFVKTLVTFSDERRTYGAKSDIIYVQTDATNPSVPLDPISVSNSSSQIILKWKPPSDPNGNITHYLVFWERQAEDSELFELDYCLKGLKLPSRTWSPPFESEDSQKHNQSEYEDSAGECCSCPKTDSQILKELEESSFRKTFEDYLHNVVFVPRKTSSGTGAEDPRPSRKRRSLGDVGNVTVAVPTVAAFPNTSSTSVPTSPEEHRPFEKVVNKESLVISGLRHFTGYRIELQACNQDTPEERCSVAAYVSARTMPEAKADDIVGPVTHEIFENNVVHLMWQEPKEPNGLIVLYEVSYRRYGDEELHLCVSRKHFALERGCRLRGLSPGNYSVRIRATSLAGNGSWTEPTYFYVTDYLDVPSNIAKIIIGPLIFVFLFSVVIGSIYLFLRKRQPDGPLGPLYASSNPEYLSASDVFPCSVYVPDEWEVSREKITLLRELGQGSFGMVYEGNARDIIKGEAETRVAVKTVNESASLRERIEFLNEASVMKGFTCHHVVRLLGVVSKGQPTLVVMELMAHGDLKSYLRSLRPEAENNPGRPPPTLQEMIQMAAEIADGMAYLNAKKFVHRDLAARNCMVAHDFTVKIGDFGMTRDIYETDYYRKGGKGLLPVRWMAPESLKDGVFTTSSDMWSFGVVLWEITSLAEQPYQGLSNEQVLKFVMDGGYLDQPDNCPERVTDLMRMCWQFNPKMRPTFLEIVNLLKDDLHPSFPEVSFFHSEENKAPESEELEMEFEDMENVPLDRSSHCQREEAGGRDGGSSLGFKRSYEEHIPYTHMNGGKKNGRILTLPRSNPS
Summary of the method: as §1

[11] = molecular target: T11, 380 human recombinant protein kinases (Homo sapiens, UniProt Q5TCX8); details: MLK4(h), read-out: Inhibition rate
T11 construct: purchased Eurofins (Celle Lévescault)
T11 sequence (Q5TCX8 whole entry): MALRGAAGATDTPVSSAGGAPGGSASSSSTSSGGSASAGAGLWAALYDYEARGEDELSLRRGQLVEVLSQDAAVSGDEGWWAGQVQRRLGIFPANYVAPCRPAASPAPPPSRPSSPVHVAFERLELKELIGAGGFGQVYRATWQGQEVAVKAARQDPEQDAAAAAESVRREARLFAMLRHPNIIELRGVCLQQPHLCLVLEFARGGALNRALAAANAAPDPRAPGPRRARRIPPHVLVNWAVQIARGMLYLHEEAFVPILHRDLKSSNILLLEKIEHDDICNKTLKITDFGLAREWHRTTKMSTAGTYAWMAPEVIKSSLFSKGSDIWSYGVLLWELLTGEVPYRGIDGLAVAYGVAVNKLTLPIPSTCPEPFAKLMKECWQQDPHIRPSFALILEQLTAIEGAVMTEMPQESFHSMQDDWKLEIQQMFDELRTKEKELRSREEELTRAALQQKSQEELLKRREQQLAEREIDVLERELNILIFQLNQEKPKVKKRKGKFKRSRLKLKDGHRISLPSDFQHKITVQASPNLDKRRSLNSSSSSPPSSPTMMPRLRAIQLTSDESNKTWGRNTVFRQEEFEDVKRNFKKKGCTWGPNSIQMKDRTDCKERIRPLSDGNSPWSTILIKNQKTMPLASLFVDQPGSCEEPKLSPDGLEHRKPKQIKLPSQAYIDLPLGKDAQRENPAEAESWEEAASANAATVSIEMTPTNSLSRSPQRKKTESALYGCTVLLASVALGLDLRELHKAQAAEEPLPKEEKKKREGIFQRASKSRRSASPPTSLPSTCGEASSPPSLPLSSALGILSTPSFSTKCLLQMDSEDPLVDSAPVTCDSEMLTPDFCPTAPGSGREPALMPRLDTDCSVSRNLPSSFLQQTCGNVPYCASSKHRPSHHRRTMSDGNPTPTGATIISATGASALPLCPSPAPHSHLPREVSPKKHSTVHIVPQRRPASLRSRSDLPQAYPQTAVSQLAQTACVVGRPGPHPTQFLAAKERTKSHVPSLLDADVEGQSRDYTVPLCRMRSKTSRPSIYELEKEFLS
Summary of the method: as §1

[12] = molecular target: T12, 380 human recombinant protein kinases (Homo sapiens, UniProt Q99986); details: VRK1(h), read-out: Inhibition rate (%)
T12 construct: purchased Eurofins (Celle Lévescault)
T12 sequence (Q99986 1-396): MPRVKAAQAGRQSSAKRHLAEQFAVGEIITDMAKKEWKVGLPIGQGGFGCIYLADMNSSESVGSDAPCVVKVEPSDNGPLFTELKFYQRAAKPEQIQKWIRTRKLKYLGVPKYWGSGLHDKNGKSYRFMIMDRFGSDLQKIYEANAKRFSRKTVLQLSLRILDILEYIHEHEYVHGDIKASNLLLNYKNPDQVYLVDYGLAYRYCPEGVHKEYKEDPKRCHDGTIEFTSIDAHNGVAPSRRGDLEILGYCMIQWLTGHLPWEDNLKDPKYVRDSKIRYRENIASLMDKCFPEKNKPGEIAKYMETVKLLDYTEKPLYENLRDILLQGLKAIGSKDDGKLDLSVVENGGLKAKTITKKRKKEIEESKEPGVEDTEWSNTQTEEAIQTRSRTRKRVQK
Summary of the method: as §1

[13] = molecular target: T13, 380 human recombinant protein kinases (Homo sapiens, UniProt Q6PHR2); details: ULK3(h), read-out: Inhibition rate (%)
T13 construct: purchased Eurofins (Celle Lévescault)
T13 sequence (Q6PHR2 1-472): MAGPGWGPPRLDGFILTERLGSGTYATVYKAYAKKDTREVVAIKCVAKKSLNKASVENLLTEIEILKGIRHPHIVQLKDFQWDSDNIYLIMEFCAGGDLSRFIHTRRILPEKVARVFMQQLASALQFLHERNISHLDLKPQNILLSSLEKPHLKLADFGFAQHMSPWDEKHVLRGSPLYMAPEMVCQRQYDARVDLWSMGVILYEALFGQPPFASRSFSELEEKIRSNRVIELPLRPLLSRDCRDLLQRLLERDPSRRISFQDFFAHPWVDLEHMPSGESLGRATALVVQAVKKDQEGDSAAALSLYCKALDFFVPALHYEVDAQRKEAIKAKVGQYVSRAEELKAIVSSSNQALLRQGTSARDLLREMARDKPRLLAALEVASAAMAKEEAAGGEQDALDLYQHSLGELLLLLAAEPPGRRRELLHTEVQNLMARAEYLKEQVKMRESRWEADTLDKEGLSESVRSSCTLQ
Summary of the method: as §1

Structure (SMILES): C=CC(=O)Nc1cc(-c2cc(-c3cc4c([nH]3)CCNC4=O)ccn2)ccc1OC(F)(F)F [compound 11]
- inhibition at 0.01 µM ([1]; 10 nM): -6%
- inhibition at 0.1 µM ([1]; 100 nM): -2%
- inhibition at 1 µM ([1]; 1000 nM): -3%
- inhibition at 0.01 µM ([2]; 10 nM): -13%
- inhibition at 0.1 µM ([2]; 100 nM): 4%
- inhibition at 1 µM ([2]; 1000 nM): 6%
- inhibition at 0.01 µM ([3]; 10 nM): 3%
- inhibition at 0.1 µM ([3]; 100 nM): 3%
- inhibition at 1 µM ([3]; 1000 nM): 9%
- inhibition at 0.01 µM ([4]; 10 nM): -3%
- inhibition at 0.1 µM ([4]; 100 nM): -3%
- inhibition at 1 µM ([4]; 1000 nM): 2%
- inhibition at 0.01 µM ([5]; 10 nM): -1%
- inhibition at 0.1 µM ([5]; 100 nM): 7%
- inhibition at 1 µM ([5]; 1000 nM): -13%
- inhibition at 0.01 µM ([6]; 10 nM): 7%
- inhibition at 0.1 µM ([6]; 100 nM): -1%
- inhibition at 1 µM ([6]; 1000 nM): 6%
- inhibition at 0.01 µM ([7]; 10 nM): -1%
- inhibition at 0.1 µM ([7]; 100 nM): 6%
- inhibition at 1 µM ([7]; 1000 nM): 26%
- inhibition at 0.01 µM ([8]; 10 nM): 3%
- inhibition at 0.1 µM ([8]; 100 nM): -3%
- inhibition at 1 µM ([8]; 1000 nM): -11%
- inhibition at 0.01 µM ([9]; 10 nM): -5%
- inhibition at 0.1 µM ([9]; 100 nM): 2%
- inhibition at 1 µM ([9]; 1000 nM): -3%
- inhibition at 0.01 µM ([10]; 10 nM): -9%
- inhibition at 0.1 µM ([10]; 100 nM): -4%
- inhibition at 1 µM ([10]; 1000 nM): -10%
- inhibition at 0.01 µM ([11]; 10 nM): -2%
- inhibition at 0.1 µM ([11]; 100 nM): -2%
- inhibition at 1 µM ([11]; 1000 nM): -3%
- inhibition at 0.01 µM ([12]; 10 nM): 1%
- inhibition at 0.1 µM ([12]; 100 nM): 1%
- inhibition at 1 µM ([12]; 1000 nM): 5%
- inhibition at 0.01 µM ([13]; 10 nM): 8%
- inhibition at 0.1 µM ([13]; 100 nM): 3%
- inhibition at 1 µM ([13]; 1000 nM): -4%
